Data reported in ChEMBL document CHEMBL4425195, “Isolation of three new annonaceous acetogenins from Graviola fruit (Annona muricata) and their anti-proliferation on human prostate cancer cell PC-3” (Bioorg Med Chem Lett, 2016).
Calls of active or inactive are those of the source. The calls are words filed in the database; no cut-off is given here.

Tested on: PC-3
Experiment: Antiproliferative activity against human PC3 cells at 20 ug/ml after 24 hrs by MTT assay
Format: functional, cell-based

Row | Compound | Activity
1 | CCCCCCCCCC[C@@H](O)[C@@H](O)C[C@H](O)[C@@H]1CC[C@@H](CCCCCCCCCC[C@H](O)CC2=C[C@H](C)OC2=O)O1 | Active
2 | CCCCCCCCCCCC/C=C/CC[C@H](O)[C@@H]1CC[C@@H]([C@@H](O)CCC(O)CCCCC[C@H](O)CC2=C[C@H](C)OC2=O)O1 (some centres not stated) | Active
